Publication PMC3982590 (Biochemistry, 2013)

Biological target: T1, TtPFK (Thermus thermophilus, UniProt P21777, L313W)
T1 sequence (P21777 1-322 L313W): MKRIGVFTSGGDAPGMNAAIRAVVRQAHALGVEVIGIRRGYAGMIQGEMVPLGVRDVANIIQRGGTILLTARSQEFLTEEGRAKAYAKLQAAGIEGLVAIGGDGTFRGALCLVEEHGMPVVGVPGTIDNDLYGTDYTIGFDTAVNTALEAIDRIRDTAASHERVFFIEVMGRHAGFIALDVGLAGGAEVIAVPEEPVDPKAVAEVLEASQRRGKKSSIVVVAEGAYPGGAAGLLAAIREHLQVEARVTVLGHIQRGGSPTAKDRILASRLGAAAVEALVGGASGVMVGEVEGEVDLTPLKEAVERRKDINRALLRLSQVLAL
Test: intrinsic tryptophan fluorescence titration
Assay type: binding

Compound `C=C(OP(=O)(O)O)C(=O)O` [PEP] has a Kd of 0.66 ± 0.06 µM.
